Experimental data taken from ChEMBL document CHEMBL5550132, “Structure-activity relationship in NOD2 agonistic muramyl dipeptides” (Eur J Med Chem, 2024).

Experiments:
[1] = molecular target: T1, Nuclear factor NF-kappa-B complex (Homo sapiens) (UniProt Q00653+P19838+Q04206); experiment: Activation of NF-KappaB (unknown origin) expressed in HEK293T cells assessed as fold change at 10 ng incubated for 12 hrs by Renilla luciferase assay; assay type: cell-based; settings: filed as activator
[2] = molecular target: T1, Nuclear factor NF-kappa-B complex (Homo sapiens); experiment: Activation of NF-KappaB (unknown origin) expressed in HEK293T cells assessed as fold change at 10 nM incubated for 12 hrs by Renilla luciferase assay; assay type: cell-based; settings: filed as activator
[3] = molecular target: T1, Nuclear factor NF-kappa-B complex (Homo sapiens); experiment: Activation of NF-KappaB (unknown origin) expressed in HEK293T cells assessed as fold change at 100 nM incubated for 12 hrs by Renilla luciferase assay; assay type: cell-based; settings: filed as activator
[4] = molecular target: T1, Nuclear factor NF-kappa-B complex (Homo sapiens); experiment: Activation of NF-KappaB (unknown origin) expressed in HEK293T cells assessed as fold change at 1000 nM incubated for 12 hrs by Renilla luciferase assay; assay type: cell-based; settings: filed as activator
[5] = molecular target: T1, Nuclear factor NF-kappa-B complex (Homo sapiens); experiment: Activation of NF-KappaB (unknown origin) expressed in HEK293T cells assessed as fold change at 20 uM; assay type: cell-based; settings: filed as activator
[6] = organism: Cavia porcellus; experiment: Induction of delayed type hypersensitivity in ABA-BSA immunized Hartley Guinea pigs assessed as reduction in skin lesions at 100 ug measured for 24 hrs; assay type: functional; settings: dose 100 µg
[7] = organism: Cavia porcellus; experiment: Induction of delayed type hypersensitivity in ABA-BSA immunized Hartley Guinea pigs assessed as reduction in skin lesions at 100 ug measured for 48 hrs; assay type: functional; settings: dose 100 µg

T1 sequence (P19838 whole entry, looked up): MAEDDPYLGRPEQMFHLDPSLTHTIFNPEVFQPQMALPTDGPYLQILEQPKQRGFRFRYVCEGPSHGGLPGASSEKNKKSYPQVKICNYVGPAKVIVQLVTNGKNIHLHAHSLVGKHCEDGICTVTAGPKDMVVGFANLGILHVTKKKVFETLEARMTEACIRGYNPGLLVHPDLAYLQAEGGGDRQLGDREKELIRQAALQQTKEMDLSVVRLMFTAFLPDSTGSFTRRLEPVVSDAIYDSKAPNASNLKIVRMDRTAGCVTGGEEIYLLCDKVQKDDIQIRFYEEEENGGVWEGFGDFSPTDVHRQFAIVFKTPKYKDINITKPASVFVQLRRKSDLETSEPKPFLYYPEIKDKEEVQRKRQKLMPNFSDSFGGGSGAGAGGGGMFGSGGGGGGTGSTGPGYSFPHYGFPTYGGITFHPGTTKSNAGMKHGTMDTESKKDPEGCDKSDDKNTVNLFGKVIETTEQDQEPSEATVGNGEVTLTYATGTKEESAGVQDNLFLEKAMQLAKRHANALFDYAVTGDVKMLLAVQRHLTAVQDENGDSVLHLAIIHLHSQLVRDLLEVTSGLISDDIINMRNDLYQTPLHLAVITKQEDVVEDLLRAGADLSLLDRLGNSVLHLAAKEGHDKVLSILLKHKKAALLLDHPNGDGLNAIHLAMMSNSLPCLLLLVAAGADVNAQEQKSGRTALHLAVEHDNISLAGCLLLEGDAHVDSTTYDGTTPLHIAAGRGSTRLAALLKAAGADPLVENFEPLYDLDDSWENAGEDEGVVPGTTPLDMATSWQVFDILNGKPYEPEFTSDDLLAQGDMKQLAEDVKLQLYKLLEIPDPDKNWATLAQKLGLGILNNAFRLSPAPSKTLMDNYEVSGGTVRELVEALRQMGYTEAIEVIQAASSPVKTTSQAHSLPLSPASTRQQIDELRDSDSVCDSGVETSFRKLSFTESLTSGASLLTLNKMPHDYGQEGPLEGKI
T1 sequence (Q00653 whole entry, looked up): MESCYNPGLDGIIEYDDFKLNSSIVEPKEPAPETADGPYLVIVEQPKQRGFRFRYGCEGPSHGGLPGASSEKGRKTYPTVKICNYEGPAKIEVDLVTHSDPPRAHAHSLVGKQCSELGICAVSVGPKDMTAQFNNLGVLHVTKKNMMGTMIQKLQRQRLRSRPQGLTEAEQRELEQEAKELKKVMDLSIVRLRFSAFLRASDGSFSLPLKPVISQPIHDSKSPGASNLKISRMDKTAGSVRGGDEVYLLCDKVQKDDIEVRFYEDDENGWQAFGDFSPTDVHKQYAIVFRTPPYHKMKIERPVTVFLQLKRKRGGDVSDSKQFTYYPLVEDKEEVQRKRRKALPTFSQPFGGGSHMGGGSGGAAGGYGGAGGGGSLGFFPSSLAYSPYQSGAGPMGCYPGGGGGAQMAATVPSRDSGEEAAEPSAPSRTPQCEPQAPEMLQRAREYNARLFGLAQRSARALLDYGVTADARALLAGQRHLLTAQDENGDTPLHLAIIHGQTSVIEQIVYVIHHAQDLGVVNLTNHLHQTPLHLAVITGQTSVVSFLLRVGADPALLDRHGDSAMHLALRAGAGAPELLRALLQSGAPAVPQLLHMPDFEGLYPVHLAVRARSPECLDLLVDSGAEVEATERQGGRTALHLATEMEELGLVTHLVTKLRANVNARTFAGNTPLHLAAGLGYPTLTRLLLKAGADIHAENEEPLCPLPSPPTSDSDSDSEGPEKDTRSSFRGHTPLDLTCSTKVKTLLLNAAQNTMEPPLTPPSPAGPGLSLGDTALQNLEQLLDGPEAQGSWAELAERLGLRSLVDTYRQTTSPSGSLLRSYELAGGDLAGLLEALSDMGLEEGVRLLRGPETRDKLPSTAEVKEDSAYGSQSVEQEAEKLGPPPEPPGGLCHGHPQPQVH
T1 sequence (Q04206 whole entry, looked up): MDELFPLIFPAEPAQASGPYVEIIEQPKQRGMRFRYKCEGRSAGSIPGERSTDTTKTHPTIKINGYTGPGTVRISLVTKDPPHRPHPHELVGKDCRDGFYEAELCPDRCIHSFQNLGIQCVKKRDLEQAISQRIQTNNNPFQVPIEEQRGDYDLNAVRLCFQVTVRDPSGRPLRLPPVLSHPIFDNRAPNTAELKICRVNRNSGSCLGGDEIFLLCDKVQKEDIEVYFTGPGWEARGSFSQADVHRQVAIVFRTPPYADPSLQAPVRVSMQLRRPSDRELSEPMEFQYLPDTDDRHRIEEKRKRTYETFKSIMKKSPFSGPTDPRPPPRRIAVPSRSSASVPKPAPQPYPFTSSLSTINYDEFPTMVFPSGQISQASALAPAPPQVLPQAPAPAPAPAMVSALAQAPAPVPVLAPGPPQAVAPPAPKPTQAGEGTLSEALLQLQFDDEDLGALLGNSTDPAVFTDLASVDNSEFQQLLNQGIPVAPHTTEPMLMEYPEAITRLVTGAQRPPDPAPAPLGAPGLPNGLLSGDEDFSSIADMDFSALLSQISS

| Structure (SMILES) | fold change (FC) [1] | fold change (FC) [2] | fold change (FC) [3] | fold change (FC) [4] | fold change (FC) [5] | Activity [6] [mm] | Activity [7] [mm] |
| --- | --- | --- | --- | --- | --- | --- | --- |
| CCOC(=O)[C@@H](CCC(=O)O)NC(=O)[C@H](C)NC(=O)[C@@H](C)O[C@H]1[C@H](O)[C@@H](CO)O[C@@H](O)[C@@H]1NC(C)=O | 4 | 4 | 6.3 | 6.6 | – | – | – |
| CCCCCCCCCCCCCCCCCCCCOC(=O)[C@@H](CCC(=O)O)NC(=O)[C@H](C)NC(=O)[C@@H](C)O[C@H]1[C@H](O)[C@@H](CO)O[C@@H](O)[C@@H]1NC(C)=O | 5.7 | 5.7 | 7.35 | 5.7 | – | – | – |
| C[C@H](NC(=O)[C@@H](C)O[C@H]1[C@H](O)[C@@H](CO)O[C@@H](OCc2ccccc2)[C@@H]1N=[N+]=[N-])C(=O)N[C@H](CCC(=O)O)C(N)=O | – | – | – | – | 0.08 | – | – |
| CCOC(=O)CC[C@@H](NC(=O)[C@H](C)NC(=O)[C@@H](C)O[C@H]1[C@H](O)[C@@H](CO)O[C@@H](O)[C@@H]1NC(C)=O)C(N)=O | 1.6 | 1.6 | 2.8 | 5.6 | – | – | – |
| CCCCOC(=O)[C@@H](CCC(=O)O)NC(=O)[C@H](C)NC(=O)[C@@H](C)O[C@H]1[C@H](O)[C@@H](CO)O[C@@H](O)[C@@H]1NC(C)=O | 4.7 | 4.7 | 7.1 | 7.8 | – | – | – |
| C[C@H](NC(=O)[C@@H](C)O[C@@H]1[C@@H](N)[C@H](O)O[C@H](CN)[C@H]1O)C(=O)N[C@H](CCC(=O)O)C(N)=O.Cl.Cl | – | – | – | – | – | 17.1 | 5.1 |
| C[C@H](NC(=O)[C@@H](C)O[C@H]1[C@H](O)[C@@H](CO)O[C@@H](O)[C@@H]1NOC(=O)CCCC[C@@H]1SC[C@@H]2NC(=O)N[C@@H]21)C(=O)N[C@H](CCC(=O)O)C(N)=O | – | – | – | – | 2.5 | – | – |
| CCCCCCCC(=O)NC[C@H]1O[C@@H](O)[C@H](NC(C)=O)[C@@H](O[C@H](C)C(=O)N[C@@H](C)C(=O)N[C@H](CCC(=O)O)C(N)=O)[C@@H]1O | – | – | – | – | – | 16.7 | 8.8 |
| CC(=O)N[C@@H]1[C@@H](O[C@H](C)C(=O)N[C@@H](C)C(=O)N[C@H](CCC(=O)O)C(=O)NCC(F)(F)C(F)(F)F)[C@H](O)[C@@H](CO)O[C@H]1O | 0.8 | 0.8 | 0.9 | 2.4 | – | – | – |
| CCCCCCCCCCCCCCCCCC(=O)NC[C@H]1O[C@@H](O)[C@H](N)[C@@H](O[C@H](C)C(=O)N[C@H](C(=O)N[C@H](CCC(=O)O)C(N)=O)C(C)C)[C@@H]1O | – | – | – | – | – | 4.3 | – |
| CCCCCCCCCCCCCCCCCC(=O)NC[C@H]1O[C@@H](O)[C@H](NC(C)=O)[C@@H](O[C@H](C)C(=O)N[C@@H](C)C(=O)N[C@H](CCC(=O)O)C(N)=O)[C@@H]1O | – | – | – | – | – | 20.5 | 15.8 |
| CCCCCCCCCCCCCCCCCC(=O)N[C@@H]1[C@@H](O[C@H](C)C(=O)N[C@H](C(=O)N[C@H](CCC(=O)O)C(N)=O)C(C)C)[C@H](O)[C@@H](CN)O[C@H]1O | – | – | – | – | – | 10.5 | – |
| CCCCCCCCCCCCOC(=O)[C@@H](CCC(=O)O)NC(=O)[C@H](C)NC(=O)[C@@H](C)O[C@H]1[C@H](O)[C@@H](CO)O[C@@H](O)[C@@H]1NC(C)=O | 7.5 | 7.5 | 6.5 | 6.3 | – | – | – |
| CCCCCCCCCCCCCCCCOC(=O)[C@@H](CCC(=O)O)NC(=O)[C@H](C)NC(=O)[C@@H](C)O[C@H]1[C@H](O)[C@@H](CO)O[C@@H](O)[C@@H]1NC(C)=O | 5.3 | 5.3 | 7 | 4.9 | – | – | – |
| C[C@H](NC(=O)[C@@H](C)O[C@H]1[C@H](O)[C@@H](CO)O[C@@H](O)[C@@H]1NC(=O)CN=[N+]=[N-])C(=O)N[C@H](CCC(=O)O)C(N)=O | – | – | – | – | 1.8 | – | – |
| CC(=O)OCC(=O)N[C@@H]1[C@@H](O[C@H](C)C(=O)N[C@@H](C)C(=O)N[C@H](CCC(=O)O)C(N)=O)[C@H](O)[C@@H](CO)O[C@H]1O | – | – | – | – | 2.2 | – | – |
| CC(=O)N[C@@H]1[C@@H](O[C@H](C)C(=O)N[C@@H](C)C(=O)N[C@H](CCC(=O)O)C(=O)NC2CCCCC2)[C@H](O)[C@@H](CO)O[C@H]1O | 1 | 1 | 1 | 2.9 | – | – | – |
| CCCCNC(=O)[C@@H](CCC(=O)O)NC(=O)[C@H](C)NC(=O)[C@@H](C)O[C@H]1[C@H](O)[C@@H](CO)O[C@@H](O)[C@@H]1NC(C)=O | 1.1 | 1.1 | 1.1 | 2.1 | – | – | – |
| C[C@H](NC(=O)[C@@H](C)O[C@H]1[C@H](O)[C@@H](CO)O[C@@H](O)[C@@H]1NC(=O)C(F)(F)F)C(=O)N[C@H](CCC(=O)O)C(N)=O | – | – | – | – | 1.9 | – | – |
| CC(=O)NC[C@H]1O[C@@H](O)[C@H](NC(C)=O)[C@@H](O[C@H](C)C(=O)N[C@@H](CO)C(=O)N[C@H](CCC(=O)O)C(N)=O)[C@@H]1O | – | – | – | – | – | 20.4 | 19.6 |
